# Measurements reported in US9145354B2, “Pharmaceutical compounds” (priority 2011, dated 2015).
# Counter-ions that a name gives are not always drawn. Like-named read-outs stand apart in the source and are kept apart here.
# Target: full length NS3/4a (Hepatitis C virus genotype 1b (isolate BK) (HCV), UniProt P26663)
# Experiment: NS3 Protease Assay (Example A), FRET-based
# Type: biochemical
# Procedure: The HCV NS3 protease functions have been extensively studied and are considered as potential targets for antiviral therapy: see for example the many references listed in the introductory section of this application. Therefore, the activity of the compounds of the invention as anti-HCV agents was assessed using a full length HCV NS3 protease.
# The protease activity of the full length NS3/4a was measured using a FRET-based assay utilizing a peptide substrate derived from the NS4A/B cleavage site (Anaspec) and labelled at one end with a quencher (QXL520) and at the other with a fluorophore (5-FAMsp). NS3/4a (produced in-house by literature methods) was incubated with test compounds and peptide substrate in 50 mM Tris pH8, 20 mM DTT, 1% CHAPS, 10% glycerol and 5% DMSO. The reaction was followed by monitoring the change in fluorescence on a Molecular Devices Gemini plate reader for 30 minutes at room temperature. Initial rates were calculated from the progress curves using SoftMax Pro (Molecular Devices). IC50 values were then calculated from replicate curves using Prism GraphPad software.
# [1] = HCV NS3 protease assay, full length NS3/4a, read-out: Assay A IC50 (μM) average
# [2] = read-out: IC50 against the protease activity of the full length NS3/4a
# [3] = stated as IC50 less than 30 μM or at least 40% inhibition at a concentration of 100 μM, read-out: IC50 against the protease activity of the full length NS3/4a
# Chain of full length NS3/4a (P26663 1027-1657): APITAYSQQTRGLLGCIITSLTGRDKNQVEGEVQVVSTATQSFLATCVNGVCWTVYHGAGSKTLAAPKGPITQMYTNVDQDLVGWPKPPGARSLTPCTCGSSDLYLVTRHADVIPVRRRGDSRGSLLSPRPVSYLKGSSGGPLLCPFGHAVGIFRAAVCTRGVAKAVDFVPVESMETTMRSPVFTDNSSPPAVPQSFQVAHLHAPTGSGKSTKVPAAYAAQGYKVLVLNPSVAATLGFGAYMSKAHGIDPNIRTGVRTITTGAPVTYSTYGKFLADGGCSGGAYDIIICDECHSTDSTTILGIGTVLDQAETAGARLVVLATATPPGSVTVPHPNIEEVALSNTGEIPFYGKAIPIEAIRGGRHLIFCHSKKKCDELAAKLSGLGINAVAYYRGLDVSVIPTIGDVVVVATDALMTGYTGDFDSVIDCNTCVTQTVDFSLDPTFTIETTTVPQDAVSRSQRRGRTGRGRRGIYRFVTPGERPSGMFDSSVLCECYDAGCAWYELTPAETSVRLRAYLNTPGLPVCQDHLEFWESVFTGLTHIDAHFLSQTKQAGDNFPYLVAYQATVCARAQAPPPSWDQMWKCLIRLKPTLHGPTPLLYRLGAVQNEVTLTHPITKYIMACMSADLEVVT
smiles,measurement,setting,value
"N[C@@H](c1ccc(Cl)c(C(=O)c2ccc(CO)cc2)c1F)C1CC1 [Example 68, [4-({3-[(R)-amino(cyclopropyl)methyl]-6-chloro-2-fluorophenyl}-carbonyl)phenyl]methanol hydrochloride]",IC50,[1],0.21 µM
"CC[C@@H](N[C@H](C)CC(N)=O)c1ccc(Cl)c(C(=O)c2ccc(N)nc2)c1F [Example 82, (3R)-3-{[(1R)-1-{3-[(6-aminopyridin-3-yl)carbonyl]-4-chloro-2-fluorophenyl}propyl]-amino}butanamide]",IC50,[1],0.83 µM
"CC[C@@H](N[C@H](C)CC(N)=O)c1ccc(Cl)c(C(=O)c2ccccc2)c1F [Example 83, (3R)-3-{[(1R)-1-(3-benzoyl-4-chloro-2-fluorophenyl)propyl]-amino}butanamide]",IC50,[1],0.5 µM
"CC[C@H](N[C@H](C)CC(N)=O)c1ccc(Cl)c(C(=O)c2ccccc2)c1F [Example 85, (3R)-3-{[(1S)-1-(3-benzoyl-4-chloro-2-fluorophenyl)-propyl]-amino}butanamide]",IC50,[1],0.061 µM
"CC[C@H](N[C@@H](C)CC(N)=O)c1ccc(Cl)c(C(=O)c2ccccc2)c1F [Example 86, (3S)-3-{[(1S)-1-(3-benzoyl-4-chloro-2-fluorophenyl)-propyl]amino}butanamide]",IC50,[1],1 µM
same,IC50,[2],1 to 5 µM
"CC[C@@H](N[C@H](C)CC(=O)NCCN)c1ccc(Cl)c(C(=O)c2ccccc2)c1F [Example 87, (3R)—N-(2-Aminoethvl)-3-{[(1R)-1-(3-benzoyl-4-chloro-2-fluorophenyl)propyl]-amino}butanamide]",inhibition at 0.01 µM,@ 0.01 uM,54%
"CC[C@H](N[C@@H](C)CC(=O)NCCN)c1ccc(Cl)c(C(=O)c2ccccc2)c1F [Example 89, (3S)-N-(2-aminoethyl)-3-{[(1S)-1-(3-benzoyl-4-chloro-2-fluorophenyl)propyl]-amino}butanamide]",inhibition at 0.03 µM,,54%
"CC[C@@H](N[C@H](C)CC(N)=O)c1ccc(Cl)c(C(=O)c2ccc(C#N)cc2)c1F [Example 92, (3R)-3-{[(1R)-1-{4-chloro-3-[(4-cyanophenyl)carbonyl]-2-fluorophenyl}propyl]amino}-butanamide]",IC50,[1],0.34 µM
"CC[C@@H](N[C@H](C)CC(N)=O)c1ccc(Cl)c(C(=O)c2cccnc2)c1F [Example 94, (3R)-3-{[(1R)-1-{4-chloro-2-fluoro-3-[(pyridin-3-yl)carbonyl]phenyl}propyl]amino}butanamide]",IC50,[1],1 µM
same,IC50,[2],1 to 5 µM
"CC[C@@H](N[C@H](C)CC(N)=O)c1ccc(Cl)c(C(=O)c2cccc(F)c2)c1F [Example 96, (3R)-3-{[(1R)-1-{4-chloro-2-fluoro-3-[(3-fluorophenyl)-carbonyl]phenyl}propyl]amino}butanamide]",inhibition at 0.3 µM,@ 0.3 uM,58%
"CC[C@@H](N[C@H](C)CC(N)=O)c1ccc(Cl)c(C(=O)c2ccc(F)cc2)c1F [Example 98, (3R)-3-{[(1R)-1-{4-chloro-2-fluoro-3-[(4-fluorophenyl)-carbonyl]phenyl}propyl]amino}butanamide]",IC50,[1],0.6 µM
"CC[C@@H](N[C@@H](C)CC(N)=O)c1ccc(Cl)c(C(=O)c2ccncn2)c1F [Example 99, (3S)-3-{[(1R)-1-{4-chloro-2-fluoro-3-[(pyrimidin-4-yl)carbonyl]phenyl}propyl]-amino}butanamide]",IC50,[1],0.25 µM
"CC[C@@H](N[C@H](C)CC(N)=O)c1ccc(Cl)c(C(=O)c2ccncn2)c1F [Example 100, (3R)-3-{[(1R)-1-{4-chloro-2-fluoro-3-[(pyrimidin-4-yl)carbonyl]phenyl}propyl]amino}butanamide]",IC50,[1],14 µM
same,IC50,[3],< 30 µM
"CC[C@@H](N[C@H](C)CC(N)=O)c1ccc(Cl)c(C(=O)c2cccc(C#N)c2)c1F [Example 102, (3R)-3-{[(1R)-1-{4-chloro-3-[(3-cyanophenyl)carbonyl]-2-fluorophenyl}propyl]amino}-butanamide]",IC50,[1],1.2 µM
same,IC50,[2],1 to 5 µM
"CC[C@@H](N[C@H](C)CC(N)=O)c1ccc(Cl)c(C(=O)c2ccccn2)c1F [Example 105, (3R)-3-{[(1R)-1-{4-chloro-2-fluoro-3-[(pyridin-2-yl)carbonyl]phenyl}propyl]amino}butanamide]",inhibition at 30 µM,@ 30 uM,57%
same,IC50,[3],< 30 µM
"CC[C@@H](N[C@H](C)CC(N)=O)c1ccc(Cl)c(C(=O)c2ccncc2)c1F [Example 107, (3R)-3-{[(1R)-1-{4-chloro-2-fluoro-3-[(pyridin-4-yl)carbonyl]phenyl}propyl]-amino}butanamide]",IC50,[1],1.1 µM
same,IC50,[2],1 to 5 µM
"CC[C@@H](N[C@H](C)CC(N)=O)c1ccc(Cl)c(C(=O)c2ccns2)c1F [Example 109, (3R)-3-{[(1R)-1-{4-chloro-2-fluoro-3-[(1,2-thiazol-5-yl)carbonyl]phenyl}propyl]-amino}butanamide]",IC50,[1],0.47 µM
"CC[C@@H](N[C@H](C)CC(N)=O)c1ccc(Cl)c(C(=O)c2cc(C)on2)c1F [Example 111, (3R)-3-{[(1R)-1-{4-chloro-2-fluoro-3-[(5-methyl-1,2-oxazol-3-yl)carbonyl]-phenyl}-propyl]amino}-butanamide]",IC50,[1],3.1 µM
same,IC50,[2],1 to 5 µM
"C[C@H](CC(N)=O)N[C@@H](c1ccc(Cl)c(C(=O)c2ccccc2)c1F)C1CC1 [Example 112, (3R)-3-{[(R)-(3-benzoyl-4-chloro-2-fluorophenyl)(cyclopropyl)-methyl]amino}butanamide]",IC50,[1],0.62 µM
"CC[C@@H](N[C@H](C)CC(N)=O)c1ccc(Cl)c(C(=O)c2ccccc2)c1F [Example 114, (3R)-3-{[(1R)-1-(3-benzoyl-4-chloro-2-fluorophenyl)-(2,2,3,3,3-D)propyl]amino}-butanamide]",IC50,[1],0.75 µM
"CC[C@@H](N[C@H](C)CC(N)=O)c1ccc(Cl)c(C(=O)c2ccc[n+]([O-])c2)c1F [Example 117, (R)-3-{(R)-1-[4-Chloro-2-fluoro-3-(1-oxy-pyridine-3-carbonyl)-phenyl]propylamino}-butyramide]",Assay A % inhibition average,@ 10 uM,16% @ 10 uM
"C[C@H](CC(N)=O)N[C@@H](c1ccc(Cl)c(C(=O)c2cccnc2)c1F)C1CC1 [Example 118, (3R)-3-{[(R)-{4-chloro-2-fluoro-3-[(pyridin-3-yl)carbonyl]phenyl}(cyclopropyl)methyl]amino}-butanamide]",inhibition at 3 µM,@ 3 uM,41%
same,IC50,[3],< 30 µM
"C[C@H](CC(N)=O)N[C@@H](c1ccc(Cl)c(C(=O)c2ccc(F)cc2)c1F)C1CC1 [Example 120, (3R)-3-{[(R)-{4-chloro-2-fluoro-3-[(4-fluorophenyl)carbonyl]phenyl}(cyclopropyl)methyl]amino}butanamide]",IC50,[1],1.2 µM
same,IC50,[2],1 to 5 µM
"CC[C@@H](N[C@@H](C)CC(N)=O)c1ccc(Cl)c(C(=O)c2cccc(C(=O)O)c2)c1F [Example 122, 3-({3-[(1R)-1-{[(2S)-1-carbamoylpropan-2-yl]amino}propyl]-6-chloro-2-fluorophenyl}carbonyl)-benzoic acid]",IC50,[1],1.4 µM
same,IC50,[2],1 to 5 µM
"CC[C@@H](N[C@H](C)CC(N)=O)c1ccc(Cl)c(C(=O)c2cccc(C(=O)O)c2)c1F [Example 123, 3-({3-[(1R)-1-{[(2R)-1-carbamoylpropan-2-yl]amino}propyl]-6-chloro-2-fluorophenyl}carbonyl)-benzoic acid]",IC50,[1],3.2 µM
same,IC50,[2],1 to 5 µM
"[2H]C([2H])([2H])C([2H])([2H])[C@@H](N[C@H](C)CC(N)=O)c1ccc(Cl)c(C(=O)c2ccc3c(c2)OCC(=O)N3)c1F [Example 124, (3R)-3-{[(1R)-1-{4-chloro-2-fluoro-3-[(3-oxo-3,4-dihydro-2H-1,4-benzoxazin-7-yl)carbonyl]phenyl} (2,2,3,3,3-deutero)propyl]amino}-butanamide]",IC50,[1],1 µM
same,IC50,[2],1 to 5 µM
"C[C@H](CC(N)=O)N[C@@H](c1ccc(Cl)c(C(=O)c2ccc(C#N)cc2)c1F)C1CC1 [Example 128, (3R)-3-{[(R)-{4-chloro-3-[(4-cyanophenyl)-carbonyl]-2-fluorophenyl}(cyclo-propyl)methyl]amino}-butanamide]",IC50,[1],0.28 µM
same,IC50,[2],< 1 µM
"C[C@@H](CC(N)=O)N[C@@H](c1ccc(Cl)c(C(=O)c2ccc(C#N)cc2)c1F)C1CC1 [Example 129, (3S)-3-{[(R)-{4-chloro-3-[(4-cyanophenyl)-carbonyl]-2-fluorophenyl}(cyclo-propyl)methyl]amino}-butanamide]",inhibition at 0.03 µM,,36%
"C[C@H](CC(N)=O)N[C@@H](c1ccc(Cl)c(C(=O)c2ccncc2)c1F)C1CC1 [Example 130, (3R)-3-{[(R)-{4-chloro-2-fluoro-3-[(pyridin-4-yl)carbonyl]phenyl}-(cyclopropyl)methyl]-amino}butanamide]",IC50,[1],1.5 µM
same,IC50,[2],1 to 5 µM
"CC[C@@H](N[C@H](C)C1(C(N)=O)CC1)c1ccc(Cl)c(C(=O)c2cccnc2)c1F [Example 131, 1-[(1R)-1-{[(1R)-1-{4-chloro-2-fluoro-3-[(pyridin-3-yl)carbonyl]phenyl}-propyl]-amino}ethyl]-cyclopropane-1-carboxamide]",IC50,[1],7.9 µM
same,IC50,[3],< 30 µM
"CC[C@@H](N[C@H](C)CC(N)=O)c1ccc(Cl)c(C(=O)c2cnc(N)cn2)c1F [Example 135, (3R)-3-{[(1R)-1-{3-[(5-aminopyrazin-2-yl)carbonyl]-4-chloro-2-fluorophenyl}propyl]-amino}butanamide]",IC50,[1],3.4 µM
same,IC50,[2],1 to 5 µM
